# Source: publication PMC10002963, “[4+2]-Cycloaddition to 5-Methylidene-Hydantoins and 5-Methylidene-2-Thiohydantoins in the Synthesis of Spiro-2-Chalcogenimidazolones” (International Journal of Molecular Sciences, 2023)
# Read-outs that look alike come from different tables or passages of the source.
# Experiments:
# HEK293T cell line = assay: MTT cytotoxicity assay, HEK293T; format: cell-based, human
# Description: (§1) Some of the obtained spiro-derivatives were tested for cytotoxicity using the standard MTT assay. Cytotoxicity was evaluated using the cell lines of various etiologies: breast cancer MCF7, human lung carcinoma A549, non-cancer human embryonic kidney cell line HEK293T, and non-cancer lung fibroblast VA13 cell line. Lung cancers and breast cancers are among the most common causes of tumor lesions and related death in the world, and non-cancerous cells were applied for the specificity of action evaluation. The results are shown in Table 5; the dose-response dependency graphs are available in Supplementary Information.
# (§2) Cell cultures. Human embryonic kidney HEK293T cell line was kindly provided by Dr. E. Knyazhanskaya; immortalized human fibroblasts cell line VA13 was kindly provided by Dr. M. Rubtsova; human breast cancer cell line MCF7 and human lung adenocarcinoma cell line A549 were kindly provided by Dr. S. Dmitriev. MCF7, VA13, A549, and HEK293T cell lines were maintained in DMEM/F-12 (Thermo Fisher Scientific, Waltham, Massachusetts, USA) culture medium containing 10% fetal bovine serum (Thermo Fisher Scientific, Waltham, Massachusetts, USA) and 50 µg/mL penicillin and 0.05 mg/mL streptomycin at 37°C (Thermo Fisher Scientific, Waltham, Massachusetts, USA) in 5% CO2. Cells were maintained at 37°C in a humidified incubator MCO-18AC (Sanyo, Japan) supplied with 5% CO2. Cell cultures were tested for the absence of mycoplasma.
# (§3) In Vitro Survival Assay (MTT Assay). The cytotoxicity was tested using the MTT (3-(4,5-dimethylthiazol-2-yl)2,5-diphenyl tetrazolium bromide) assay with some modifications. A total of 2500 cells per well for the MCF7, HEK293T cell lines, 3000 cells for the A549 cell line, or 4000 cells per well for the VA-13 cell line were plated out in 135 µL of DMEM-F12 media (Gibco, USA) in a 96-well plate and then incubated in the 5% CO2 incubator for first 20 h without treating. After this, 15 µL of media-DMSO solutions of tested substances were added to the cells (final DMSO concentrations in the media were 0,5% or less) and treated for65 h with 45 nM–100 µM (eight dilutions) of our substances (triplicate each) and doxorubicin as a control substance. Then the MTT reagent (Paneco LLC, Moscow, Russia) was added to cells up to the final concentration of 0.5 g/L (10 × stock solution in PBS was used), and cells were incubated for 2 h at 37 °C under an atmosphere of 5% CO2. Then the MTT solution was discarded, and 140 µL of DMSO (PharmaMed LLC, Russia) was added. The plates were swayed on a shaker (200 rpm) to dissolve the formazan. The absorbance was measured using a microplate reader (VICTOR ×5 Light Plate Reader, PerkinElmer, USA) at a wavelength of 555 nm (in order to measure formazan concentration). The results were used to construct dose-response graphs and to estimate IC50absvalues (IC50abs is the concentration resulting in a two-fold decrease in the number of cells in comparison with the untreated cells) and, in some cases, IC50 values (IC50 is the concentration resulting in half of the maximal cytotoxic effect) with GraphPadSoftware, Inc., San Diego, CA, USA.
# VA13 cell line = assay: MTT cytotoxicity assay, VA13; format: cell-based, human
# Description: as §1, §2, §3
# A549 cell line = assay: MTT cytotoxicity assay, A549; format: cell-based, human
# Description: as §1, §2, §3
# MCF7 cell line = assay: MTT cytotoxicity assay, MCF7; format: cell-based, human
# Description: as §1, §2, §3
# E. coli BW25113 DTC = assay: Minimal inhibitory concentration, E. coli BW25113 DTC; format: cell-based, Escherichia coli
# Description: (§4) Then the minimal inhibitory concentration (MIC) was measured for E. coli BW25113 DTC and E. coli K-12 (WT) for the 12 most bacteriotoxic compounds from the plate test.
# (§5) Determination of Minimal Inhibitory Concentration (MIC). MIC values were determined by monitoring growth in 96-well plates of E. coli cultures exposed to serial dilutions of compounds. Specifically, overnight E. coli BW25113 DTC and K12 cultures were diluted in 96-well plates to an OD590 of 0.01 in LB medium. The wells were then supplemented with the solution of each tested compound at concentrations of 1 mM, 500 µM, 250 µM, 125 µM, 62.5 µM, 31.25 µM, 15.63 µM, 7.81 µM, 3.91 µM, and 1.95 µM. Then the plates were incubated with shaking (200 r.p.m.) overnight at 37°C, and cell growth was assessed by scanning OD590 each well with a VictorX5 reader.
# E. coli K-12 (WT) = assay: Minimal inhibitory concentration, E. coli K-12; format: cell-based, Escherichia coli; conditions: LB medium, overnight 37°C, >1000 = inactive in this test
# Description: as §4, §5
# [1] = 65-h treatment, Cmax 100 µM, read-out: IC50abs
# [2] = VA13, 65-h treatment, MTT, Cmax 100 µM, read-out: IC50abs
# [3] = A549, 65-h treatment, MTT, Cmax 100 µM, read-out: IC50abs
# [4] = Table S1, read-out: IC50 (concentration resulting in half of the maximal cytotoxic effect)
# [5] = MCF7, 65-h treatment, MTT, Cmax 100 µM, read-out: IC50abs
# [6] = MCF7, MTT, Table S1, read-out: IC50 (concentration resulting in half of the maximal cytotoxic effect)
# [7] = VA13, MTT, Table S1, read-out: IC50 (concentration resulting in half of the maximal cytotoxic effect)
# [8] = A549, MTT, Table S1, read-out: IC50 (concentration resulting in half of the maximal cytotoxic effect)
# [9] = E. coli BW25113 DTC, LB medium, overnight 37°C, >1000 = inactive in this test
# [10] = Homo sapiens, HEK-293T, 65-h treatment, Cmax 100 µM, read-out: IC50abs
# [11] = Homo sapiens, MCF7, 65-h treatment, MTT, Cmax 100 µM, read-out: IC50abs
# [12] = Homo sapiens, VA-13, VA13, 65-h treatment, MTT, Cmax 100 µM, read-out: IC50abs
# [13] = Homo sapiens, A549, 65-h treatment, MTT, Cmax 100 µM, read-out: IC50abs
SMILES,IC50 (HEK293T cell line; [1]) [µM],IC50 (VA13 cell line; [2]) [µM],IC50 (A549 cell line; [3]) [µM],IC50 (MCF7 cell line; [5]) [µM],MIC (E. coli BW25113 DTC; [9]) [µM],MIC (E. coli K-12 (WT)) [µM],also measured
CC1=C(C)CC2(CC1)NC(=S)N(c1ccccc1F)C2=O (racemic) [Compound 54],29.6 ± 3,> 100,49.5 ± 5,,,,
CC1=C(C)CC2(CC1)NC(=S)N(c1ccccc1Cl)C2=O (racemic) [Compound 55],~5,> 100,~10,~100,>1000,>1000,IC50 (HEK293T cell line; [4]): 3.1 µM; IC50 (MCF7 cell line; [6]): 1.5 µM; IC50 (VA13 cell line; [7]): 1.9 µM; IC50 (A549 cell line; [8]): 2.1 µM
CC1=C(C)CC2(CC1)NC(=S)N(c1cccc(C)c1)C2=O (racemic) [Compound 56],22 ± 8,98.7 ± 17.6,> 100,,,,
CC1=C(C)CC2(CC1)NC(=S)N(c1ccc(F)cc1)C2=O (racemic) [Compound 58],13.7 ± 2.3,45 ± 7.5,23.2 ± 3.5,59 ± 13.3,,,
COc1ccc(N2C(=O)C3(CCC(C)=C(C)C3)NC2=S)cc1 (racemic) [Compound 60],10.2 ± 1.3,75.3 ± 17,52.2 ± 5.7,98.3 ± 19.8,>1000,>1000,
CC1=C(C)CC2(CC1)NC(=S)N(c1c(C)cccc1C)C2=O (racemic) [Compound 61],~4,,~10,~100,,,IC50 (HEK293T cell line; [4]): 1.4 µM; IC50 (MCF7 cell line; [6]): 0.9 µM; IC50 (VA13 cell line; [7]): 0.4 µM; IC50 (A549 cell line; [8]): 4.2 µM
O=C1N[C@@]2(C[C@@H]3C=C[C@H]2C3)C(=O)N1c1ccccc1 [Compound 28a],,,,,,,"IC50 (HEK293T cell line; [10]): > 100 µM; IC50 (MCF7 cell line; [11]): > 100 µM; IC50 (VA13 cell line; [12]): > 100 µM; IC50 (A549 cell line; [13]): > 100 µM; MIC (E. coli BW25113 DTC; Escherichia coli, BW25113): > 1000 µM; MIC (E. coli K-12 (WT); Escherichia coli): > 1000 µM"
O=C1NC2(CC3C=CC2C3)C(=O)N1c1ccccc1 (centres unmarked) [Compound 28b],> 100,> 100,> 100,> 100,>1000,>1000,
O=C1N(c2ccccc2)C(=S)NC12CC1C=CC2C1 (centres unmarked) [Compound 34a],,,,,,,IC50 (HEK293T cell line; [10]): 83 ± 3.7 µM; IC50 (MCF7 cell line; [11]): > 100 µM; IC50 (VA13 cell line; [12]): > 100 µM; IC50 (A549 cell line; [13]): > 100 µM
O=C1N(c2ccccc2F)C(=S)NC12CC1C=CC2C1 (centres unmarked) [Compound 35b],87.4 ± 9.9,> 100,> 100,> 100,1000,>1000,
Cc1cccc(N2C(=O)C3(CC4C=CC3C4)NC2=S)c1 (centres unmarked) [Compound 37a],> 100,> 100,> 100,> 100,,,
COc1cccc(N2C(=O)C3(CC4C=CC3C4)NC2=S)c1 (centres unmarked) [Compound 38a],,> 100,> 100,> 100,,,
